Laboratory results as given in paper PMC9737664, “Human Milk Oligosaccharide 2′-Fucosyllactose Inhibits Ligand Binding to C-Type Lectin DC-SIGN but Not to Langerin” (International Journal of Molecular Sciences, 2022).

Molecular target: T1, DC-SIGN (Homo sapiens, UniProt Q9NNX6)
T1 construct: gene CD209; DC-SIGN-Fc: extracellular domain fused to the Fc portion of human IgG1
T1 sequence (Q9NNX6 59-404 limits assumed): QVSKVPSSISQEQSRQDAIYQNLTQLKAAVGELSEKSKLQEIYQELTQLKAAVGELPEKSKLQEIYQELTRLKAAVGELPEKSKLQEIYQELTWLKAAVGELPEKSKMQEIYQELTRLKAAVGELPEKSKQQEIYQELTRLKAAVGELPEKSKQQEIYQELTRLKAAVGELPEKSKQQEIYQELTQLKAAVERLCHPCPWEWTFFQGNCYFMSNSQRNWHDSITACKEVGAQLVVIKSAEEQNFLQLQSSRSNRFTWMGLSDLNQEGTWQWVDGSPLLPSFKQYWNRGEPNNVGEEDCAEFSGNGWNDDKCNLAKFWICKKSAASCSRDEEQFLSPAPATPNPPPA
Test: Solid-phase competition ELISA of DC-SIGN-Fc against PAA-fucose and PAA-Le^b; also Le^b bead competition on DC-SIGN expressing cells ([…])
Format: binding

Solid-phase competition ELISA of DC-SIGN-Fc against PAA-fucose and PAA-Le^b; als: ~ 2 mM
Structure (SMILES): C[C@@H]1O[C@@H](O[C@H]2[C@H](O[C@H]3[C@H](O)[C@@H](O)C(O)O[C@@H]3CO)O[C@H](CO)[C@H](O)[C@@H]2O)[C@@H](O)[C@H](O)[C@@H]1O (stereo partly shown) [2′-FL, 2′-Fucosyllactose]
